In the supplement of paper PMC10307832:

Columns and labels:
Test in all cases: relative viability (nuclei count vs DMSO), 5 days (fraction); higher = more cells survive
[1] = compound: CC1=NC=CC(=C1)C2=CC=C(C=C2)CC(=O)NC3=CC=C(C=C3)C4=CN=CC=C4 [Wnt-C59] + CC(=O)Nc1cccc(-n2c(=O)n(C3CC3)c(=O)c3c(Nc4ccc(I)cc4F)n(C)c(=O)c(C)c32)c1 [Trametinib] (partner 0.02 µM)
Outline: (§1)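 Each reported value is a median over duplicate plates. It expresses relative viability: treated-well nuclei count divided by vehicle-well nuclei count. Lung cancer cell lines in 1536-well plates were dosed by pin tool a day after seeding, alone with one drug or with a fixed anchor-drug dose plus five library-drug doses (not always all listed) in √10 steps, and nuclei were counted after 5 days.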

[2] = compound: CC1=NC=CC(=C1)C2=CC=C(C=C2)CC(=O)NC3=CC=C(C=C3)C4=CN=CC=C4 [Wnt-C59] + N=C(N)NC(=N)NCCc1ccccc1 [Phenformin] (partner 250 µM)
Outline: as §1

[3] = compound: CC1=NC=CC(=C1)C2=CC=C(C=C2)CC(=O)NC3=CC=C(C=C3)C4=CN=CC=C4 [Wnt-C59] + Nc1ncn([C@H]2C[C@H](O)[C@@H](CO)O2)c(=O)n1 [Decitabine] (partner 2 µM)
Outline: as §1

[4] = compound: CS(=O)(=O)CCNCc1ccc(-c2ccc3ncnc(Nc4ccc(OCc5cccc(F)c5)c(Cl)c4)c3c2)o1 [Lapatinib] + Cc1cc(Nc2cc(N3CCN(C)CC3)nc(Sc3ccc(NC(=O)C4CC4)cc3)n2)n[nH]1 [Tozasertib] (partner 0.1 µM)
Outline: as §1

| Cell Line | relative viability ([1]; first compound 0.001 µM) | relative viability ([1]; first compound 0.01 µM) | relative viability ([1]; first compound 0.03162 µM) | relative viability ([1]; first compound 0.1 µM) | relative viability ([2]; first compound 0.001 µM) | relative viability ([2]; first compound 0.01 µM) | relative viability ([2]; first compound 0.03162 µM) | relative viability ([2]; first compound 0.1 µM) | relative viability ([3]; first compound 0.001 µM) | relative viability ([3]; first compound 0.01 µM) | relative viability ([3]; first compound 0.03162 µM) | relative viability ([3]; first compound 0.1 µM) | relative viability ([4]; first compound 0.02 µM) | relative viability ([4]; first compound 0.06325 µM) | relative viability ([4]; first compound 0.2 µM) | relative viability ([4]; first compound 0.6325 µM) | relative viability ([4]; first compound 2 µM) |
| --- | --- | --- | --- | --- | --- | --- | --- | --- | --- | --- | --- | --- | --- | --- | --- | --- | --- |
| NCI-H1755 | 0.797 | 0.792 | 0.759 | 0.719 | 0.486 | 0.631 | 0.609 | 0.632 | 0.696 | 0.728 | 0.725 | 0.691 | 0.549 | 0.583 | 0.559 | 0.483 | 0.486 |
| NCI-H1793 | 0.495 | 0.408 | 0.385 | 0.425 | 0.34 | – | 0.397 | 0.362 | 0.458 | 0.461 | 0.615 | 0.521 | – | 0.286 | 0.213 | 0.185 | 0.142 |
| NCI-H1915 | 0.302 | 0.304 | 0.346 | 0.31 | 0.362 | 0.392 | 0.385 | 0.367 | 0.261 | 0.261 | 0.262 | 0.251 | – | 0.367 | 0.437 | 0.383 | 0.319 |
| NCI-H1944 | 0.433 | 0.449 | 0.431 | 0.369 | 0.197 | 0.188 | 0.19 | 0.197 | 0.501 | 0.459 | 0.51 | 0.43 | 0.245 | 0.216 | 0.239 | 0.205 | 0.181 |
| NCI-H1975 | 0.414 | 0.38 | 0.33 | 0.349 | 0.396 | 0.393 | 0.395 | 0.406 | 0.419 | 0.385 | 0.423 | 0.38 | 0.583 | 0.516 | 0.25 | 0.178 | 0.167 |
| NCI-H1993 | 0.634 | 0.486 | 0.507 | 0.465 | 0.49 | – | 0.472 | 0.514 | 0.597 | 0.594 | 0.64 | 0.66 | 0.518 | – | 0.574 | 0.518 | 0.486 |
| NCI-H2009 | 0.267 | 0.315 | 0.267 | 0.294 | 0.535 | 0.514 | 0.495 | 0.469 | 0.35 | 0.442 | 0.352 | 0.379 | 0.732 | 0.633 | 0.78 | 0.714 | 0.492 |
| NCI-H2023 | 0.608 | 0.579 | 0.679 | 0.543 | 0.406 | 0.415 | 0.419 | 0.35 | 0.227 | 0.244 | 0.251 | 0.221 | 0.249 | – | 0.191 | 0.204 | 0.137 |
| NCI-H2085 | 0.599 | 0.577 | 0.58 | 0.614 | 0.757 | 0.649 | 0.691 | 0.673 | 0.623 | 0.571 | 0.494 | 0.601 | – | 0.748 | 0.73 | 0.532 | 0.337 |
| NCI-H2087 | 0.203 | 0.176 | 0.205 | 0.259 | 0.504 | 0.416 | 0.547 | 0.465 | 0.245 | 0.28 | 0.281 | 0.336 | – | 0.233 | 0.267 | 0.186 | 0.215 |
| NCI-H2126 | 0.579 | 0.532 | 0.573 | 0.581 | 0.542 | 0.507 | 0.53 | 0.541 | 0.654 | 0.576 | 0.567 | 0.575 | – | 0.664 | 0.844 | 0.712 | 0.547 |
| NCI-H2170 | 0.923 | 0.864 | 1.03 | 0.974 | 0.436 | 0.395 | 0.405 | 0.443 | 0.47 | 0.516 | 0.506 | 0.474 | 0.704 | 0.553 | 0.565 | 0.403 | 0.169 |
| NCI-H2342 | 0.786 | 0.757 | 0.91 | 0.797 | 0.616 | 0.63 | 0.756 | 0.746 | 0.713 | 0.787 | 0.748 | 0.692 | 0.495 | 0.489 | 0.455 | 0.538 | 0.354 |
| NCI-H2347 | 0.357 | 0.271 | 0.318 | 0.194 | 0.446 | 0.369 | 0.249 | 0.388 | 0.629 | 0.628 | 0.643 | 0.602 | – | 0.57 | 0.52 | 0.439 | 0.399 |
| NCI-H2405 | 0.655 | 0.587 | 0.505 | 0.574 | 0.413 | 0.336 | 0.366 | 0.384 | 0.793 | 0.756 | 0.786 | 0.656 | 0.665 | 0.694 | 0.807 | 0.759 | 0.561 |
| NCI-H3122 | 0.18 | 0.243 | 0.207 | 0.218 | 0.369 | 0.366 | 0.36 | 0.362 | 0.453 | 0.477 | 0.476 | 0.385 | – | 0.366 | 0.479 | 0.341 | 0.349 |
| PC-3 [JPC-3] | 0.78 | 0.736 | 0.623 | 0.785 | 0.486 | 0.467 | 0.52 | 0.502 | 0.853 | 0.847 | 0.849 | 0.841 | 0.876 | 0.83 | 0.909 | 0.803 | 0.506 |
| PC-14 | 0.97 | 0.911 | 0.9 | 0.729 | 0.583 | 0.713 | 0.478 | 0.748 | 0.246 | 0.283 | 0.223 | 0.243 | – | 0.604 | 0.638 | 0.551 | 0.356 |
| RERF-LC-KJ | 0.936 | 0.884 | 0.962 | 0.753 | 0.441 | 0.478 | 0.433 | 0.419 | 0.711 | 0.727 | 0.742 | 0.735 | 0.525 | 0.425 | 0.436 | 0.413 | 0.337 |
| SK-LU-1 | 0.561 | 0.506 | 0.533 | 0.422 | 0.476 | 0.49 | 0.506 | 0.503 | 0.657 | 0.675 | 0.694 | 0.657 | 0.32 | 0.306 | 0.3 | 0.29 | 0.235 |
| SK-MES-1 | 0.61 | 0.556 | 0.511 | 0.518 | 0.673 | 0.69 | 0.694 | 0.695 | 0.386 | 0.403 | 0.366 | 0.355 | 0.894 | 0.996 | 1.07 | 0.943 | 0.495 |
| SW 900 | 0.809 | 0.745 | 0.793 | 0.6 | 0.633 | 0.607 | 0.555 | 0.574 | 0.49 | 0.43 | 0.492 | 0.402 | – | 0.35 | 0.374 | 0.298 | 0.276 |
| SW 1573 | 0.515 | 0.551 | 0.582 | 0.515 | 0.343 | 0.41 | 0.431 | 0.365 | 0.449 | 0.453 | 0.583 | 0.537 | 0.121 | 0.164 | 0.143 | 0.12 | 0.159 |
